Data from patent US8957016B2, “Tumor activated prodrugs” (Genspera, Inc., priority 2006, dated 2015).
Like-named read-outs stand apart in the source and are kept apart here. *1 amine or outer side, *2 acyl side, *3 side chain or, on linkers, in order; H or OH if unused. Where a SMILES comes first, the peptide text is derived from it. [ ]: non-standard residue; d: D form. The star is where a group is joined. AMC = Cc1cc(=O)oc2cc(N*)ccc12; Morpholide = C1CN(*)CCO1; CO = O=C([*:1])[*:2]

Key:
[1] = biological target: PSA (Homo sapiens, UniProt P07288); assay: Kinetic parameters of fluorescent (AMC) PSA peptide substrates, Lineweaver Burke plots; assay type: biochemical; conditions: PSA 10 μg/ml, AMC-coupled peptide
Chain of PSA (P07288 25-261): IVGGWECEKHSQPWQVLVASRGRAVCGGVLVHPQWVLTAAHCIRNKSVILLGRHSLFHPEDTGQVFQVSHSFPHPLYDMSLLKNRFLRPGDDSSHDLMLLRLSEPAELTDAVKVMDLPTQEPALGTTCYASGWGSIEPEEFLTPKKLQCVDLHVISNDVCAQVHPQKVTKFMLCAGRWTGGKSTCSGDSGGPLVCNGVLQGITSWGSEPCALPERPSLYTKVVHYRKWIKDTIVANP
Procedure: These peptides were then incubated with PSA (10 μg/ml) and Michaelis Menton kinetic parameters determined using Lineweaver Burke plots, Table 3. In this study, Kcat/Km ratios were calculated in order to rank peptides. Newly synthesized peptides contained an acetyl protecting group (Ac) at the amino terminus, whereas the test peptide contained the protecting group morpholinylcarbonyl (Mu).

[2] = biological target: sarcoplasmic reticulum (SR) and endoplasmic reticulum (ER) Ca2+-ATPase (SERCA) pump; conditions: read-out: apparent dissociation constant; cited from earlier work

| SMILES | kcat [1] | Km ([1]; read-out: Km) | Km [1] | Kd [2] |
| --- | --- | --- | --- | --- |
| CC(=O)NCC(=O)N[C@@H](CCCCN)C(=O)N[C@@H](CO)C(=O)N[C@@H](CCC(N)=O)C(=O)N[C@@H](Cc1ccc(O)cc1)C(=O)N[C@@H](CCC(N)=O)C(=O)Nc1ccc2c(C)cc(=O)oc2c1 [Ac-GKSQYQ-AMC] (Ac-GKSQYQ-{AMC}) | 0.09 s⁻¹ | 343 µM | – | – |
| CC(=O)NCC(=O)N[C@@H](CO)C(=O)N[C@@H](CO)C(=O)N[C@@H](CCCCN)C(=O)N[C@@H](Cc1ccccc1)C(=O)N[C@@H](CCC(N)=O)C(=O)Nc1ccc2c(C)cc(=O)oc2c1 [Ac-GSSKFQ-AMC] (Ac-GSSKFQ-{AMC}) | 0.057 s⁻¹ | – | 666 µM | – |
| CC(=O)NCC(=O)N[C@@H](CO)C(=O)N[C@@H](CO)C(=O)N[C@@H](CCCCN)C(=O)N[C@@H](Cc1ccc(O)cc1)C(=O)N[C@@H](CCC(N)=O)C(=O)Nc1ccc2c(C)cc(=O)oc2c1 [Ac-GSSKYQ-AMC] (Ac-GSSKYQ-{AMC}) | 0.113 s⁻¹ | – | 500 µM | – |
| CC(=O)NCC(=O)N[C@H](CO)C(=O)N[C@@H](C)C(=O)N[C@@H](CCCCN)C(=O)N[C@@H](Cc1ccc(O)cc1)C(=O)N[C@@H](CCC(N)=O)C(=O)Nc1ccc2c(C)cc(=O)oc2c1 [Ac-GsAKYQ-AMC] (Ac-G[dS]AKYQ-{AMC}) | 0.143 s⁻¹ | – | 653 µM | – |
| Cc1cc(=O)oc2cc(NC(=O)[C@H](CCC(N)=O)NC(=O)[C@H](CC(C)C)NC(=O)[C@H](CCCCN)NC(=O)[C@H](CO)NC(=O)[C@H](CO)NC(=O)[C@H](Cc3c[nH]cn3)NC(=O)N3CCOCC3)ccc12 [Mu-HSSKLQ-AMC, reference compound] ({Morpholide-CO}-HSSKLQ-{AMC}) | 0.011 s⁻¹ | – | – | – |
| C/C=C(/C)C(=O)O[C@H]1C(C)=C2[C@H]([C@@H]1OC(=O)CCCCCCC)[C@@](C)(OC(C)=O)C[C@H](OC(=O)CCC)[C@@]1(O)[C@H]2OC(=O)[C@@]1(C)O [Thapsigargin] | – | – | – | ≤ 2.2 pM |
